Usually half-life stands for the time in which the quantity being followed falls by half. Read a low half-life as fast loss. By viability is commonly meant a read-out of living cells in per cent, often relative to untreated cells.

A short description of data set [1]: Second-order rate constant of the IEDDA reaction with TCO 3.2, stopped-flow UV-Vis, pseudo first-order conditions. It is filed as physicochemical. As to conditions: 25% MeCN/PBS at 20° C.; mean ± SD (n = 5). The protocol:
(§1) The second-order rate constant of the IEDDA reaction between model TCO 3.2 and activators 2.7 or 2.8 in MeCN at 20° C. was determined (n=1) by UV-Vis spectrometry under second-order conditions. A cuvette was filled with a solution of activator (3 mL 0.083 mM in MeCN), and equilibrated at 20° C. Next, a solution of TCO 3.2 (10.0 μL, 25 mM in DMSO) was added. The absorption at 540 nm was measured every second in a time course experiment. From the decay of this absorption, the conversion x was calculated. The second-order rate constant k2 was determined from the slope of the curve of a plot of 1/c-1/c0 versus time. The second-order rate constant of the IEDDA reaction between model TCO 3.2 and activators 2.7, 2.8, 2.14, 2.16, or 2.17 in 25% MeCN/PBS at 20° C. was determined (n=5) by stopped-flow UV-Vis spectrometry under pseudo first-order conditions. Tetrazine solutions (0.25 mM in 25% MeCN/PBS) and TCO 3.2 (3.45 mM in 25% MeCN/PBS) were mixed in a volume ratio of 1:1, resulting in a concentration of 0.125 mM and 1.73 mM, respectively. The absorption at 520 nm was measured every 50 ms, and from the decay of this absorption, the pseudo first-order rate constant k1′ was determined by a nonlinear Simplex regression analysis of the data points using BioKine software. The second-order rate constant k2 was calculated: k2=k1′/c,TCO. As expected for a cycloaddition reaction, the reactivity in PBS is much higher than in MeCN, and importantly the tetrazines of the invention are at least 1 order of magnitude more reactive than the known and high-releasing 3,6-bismethyl-tetrazine (2.17), while giving similar release yields (see Example 7).

A short description of data set [2]: Second-order rate constant of the IEDDA reaction with TCO 3.2, UV-Vis under second-order conditions in MeCN. It is filed as physicochemical. As to conditions: MeCN at 20° C.; n = 1. The protocol: as §1, with “As expected for a cycloaddition reaction, the reactivity in PBS is much higher than in MeCN, and importantly the tetrazines of the invention are at least 1 order of magnitude more reactive than the known and high-releasing 3,6-bismethyl-tetrazine (2.17), while giving similar release yields (see Example 7).” left out

A short description of data set [3]: Activator stability in PBS at rt (UV decay at 520 nm). It counts as physicochemical. Particulars: mean ± SD (n = 3). On the procedure:
The assessment of activator stability was performed in PBS at rt. Solutions in DMSO (2.5 mM, 20 μL) were diluted with PBS (3.00 mL), filtered, and incubated at rt. The decrease of the absorption band at 520 nm was monitored using UV spectroscopy.

For the next data set, the system named is ADC AVP0458-TCO-MMAE. Briefly: Triggered drug (MMAE) release from ADC in 50% mouse plasma, HPLC-SIM-MS. Particulars: for MMAE release from ADC AVP0458-TCO-MMAE, Release (%) / MMAE release level, in words: 50% mouse plasma, 37° C.; for MMAE release level, in words: after 24h incubation. The protocol: In a 1.5 mL vial, the following was combined: 650 μL mouse plasma, 600 μL PBS, 20 μL ADC (1.62 μg/μL in PBS) and 7.5 μL d8-MMAE solution (0.167 μg/μL, internal standard). Next, aliquots of 20 μL were prepared to which 5.2 μL of a tetrazine solution (0.25 mM in 1:1 DMSO/H2O) was added and the solution was incubated at 37° C. At various times, 100 μL of cold MeCN was added to the aliquot and the mixture was vortexed, stored at 4° C. for 30 min. and centrifuged. 20 μL of supernatant was taken and combined with 100 μL of 1% formic acid (aq) solution. This sample was analysed with HPLC-SIM-MS to quantify the ratio of free MMAE and d8-MMAE, which is a measure of the release yield.

A short description of data set [4]: Triggered release of Construct-A from TCO trigger, HPLC-MS/PDA. The protocol:
At the specified time point, the sample was analyzed by HPLC-MS/PDA, and the release yield was determined from the observed amounts of IEDDA adducts, elimination product, and/or released Construct. In case the release was not complete, the sample was incubated at 37° C. for additional time and analyzed once again.

The test system of data set [5] is 125I-labeled CC49 conjugate. Briefly: Triggered radiolabel release from 125I-labeled CC49-3.6 conjugate, SEC. As to conditions: 2h in PBS at 37° C. On the procedure: The anti-TAG72 mAb CC49 was conjugated with 3.6 in borate buffer pH 8.0 (containing 1 mM DTPA) using 3 equiv. TCEP. After conjugation, the product was dialyzed extensively (20 kDa MW cut-off membrane) in PBS. The CC49-3.6 the conjugate was radiolabeled using a previously described ^125I-labeled tetrazine [Albu et al., Bioconjug Chem 2016, 27, 207-216] in PBS at 37° C. for 1 h. Due to the higher reactivity of the TCO tag on the outside vs the cleavable TCO trigger on the inside the radiolabeling occurred selectively via the TCO tag. The crude labeling mixture was purified using a desalting cartridge (Zeba spin column, 40 kDa MW cut-off) then the isolated ^125I-labeled CC49 conjugate was incubated with activator 2.7 for 2h in PBS at 37° C., resulting in reaction with the TCO trigger, yielding 88.6% radiolabel release, as confirmed by SEC analysis.

Data set [6] in a line: Cell proliferation assay (MTT). It counts as cell-based. Particulars: human, 3 days incubation, mean ± SEM (n = 6), read-out: LS174T cell viability (%); for viability at 72 h, 0.01 μM: 0.01 μM activator; for viability at 72 h, 0.1 μM: 0.1 μM activator; for viability at 72 h, 1 μM: 1 μM activator. The protocol: The human colon carcinoma LS174T cell line was obtained from the American Type Culture Collection and cultured in RPMI-1640 medium supplemented with 2 mM glutamine and 10% heat inactivated fetal calf serum. Twenty-four hours prior to the experiment, the cells were plated in 96-well plates at a 5000 cells/well density. The cells were then incubated with serial dilutions (10 nM-1 μM; n=6) of activators 2.7, 2.8, 2.14, 2.16, 2.17, 2.18 and 2.19 in culture medium for 72h at 37° C. The % cell proliferation was assessed by an MTT assay, in comparison to cells incubated in culture medium without activator. No toxicity was observed when the LS174T cells were incubated with the tested activators (and possible metabolites formed in the presence of serum) for 3-days at a 0.01-1 μM activator concentration.

Data set [7] relates to TCO Trigger on tumor-bound ADC. Nature of the data set: In vivo reactivity between ADC AVP0458-TCO-MMAE and tetrazine activators (tumor activation study). Details: species or system mice. Particulars: higher dose (dose 5×: ca. 16.7 μmol/kg). The protocol: (§2) Female nude Balb/C mice were subcutaneously inoculated ca. 1×10^6 LS174T cells in the hind limb. Biodistribution studies started when the tumors reached 0.1-0.2 cm^3 size. Experiments were carried out to evaluate the reactivity between the TCO Trigger on tumor-bound ADC and activators 2.7, 2.8, 2.14 and 2.16 in LS174T xenografts, as previously performed for other activators [Rossin et al Nature Communications 2018, 9, 1484]. The activators were administered at a 20- to 100-lower dose than that used in previous activation and therapy studies (ca. 0.335 mmol/kg). […] Groups of tumor bearing mice (n=4) were injected with ^125I-labeled ADC (2 mg/kg) followed 48 h later by the activators (dose 1×: ca. 3.3 μmol/kg; dose 5×: ca. 16.7 μmol/kg) and, after 1 h, by [^111In]In-2.20 (ca. 0.33 μmol/kg). One group was injected with the same amount of ^125I-labeled ADC followed only by ^111In-2.20 49 h later. One group was injected only with ^111In-2.20 (non-specific probe binding). All mice were euthanized 23 h post-probe injection and the ^125I and ^111In uptakes in tumors were measured by γ-counting.

For another data set, the system named is LS174T xenografts. Nature of the data set: MMAE measurement in tumors. Particulars: 24 h after administration of activator at dose 1×. It counts as in vivo, mice. The protocol: as §2
The concentration of MMAE released in tumors was measured as previously reported [Rossin et al Nature Communications 2018, 9, 1484]. […] For this reason, activator 2.16 was selected for a therapy study in combination with the click-cleavable ADC. At the doses of tc-ADC (4 mg/kg) and 2.16 (dose 10×; 33.5 μmol/kg) used for therapy study, a high level of 339±45 nM free MMAE was detected in tumors.

The mark [8] stands for this setting: 2 min after reaction with activator.

Take `Oc1cccnc1-c1nnc(-c2ncccc2O)nn1` [2.7, 2,2′-(1,2,4,5-Tetrazine-3,6-diyl)bis(pyridin-3-ol)]: the “Calculated k2 values for the reaction between tetrazine activators and TCO 3.2 in PBS” value in [1] was 397 ± 4 M⁻¹ s⁻¹. Also, in data set [2], the “Calculated k2 values for the reaction between tetrazine activators and TCO 3.2 in MeCN” value is 68 M⁻¹ s⁻¹. This molecule also had a half-life at 16.6 µM in [3] of 37.8 ± 0.8 h. The “MMAE release from ADC AVP0458-TCO-MMAE, Release (%)” value with ADC AVP0458-TCO-MMAE (setting [8]) was 53.8%; in the data set on ADC AVP0458-TCO-MMAE (10 min), 80.1%; in the data set with ADC AVP0458-TCO-MMAE (1 h), 80.9%; in the data set with ADC AVP0458-TCO-MMAE (5 h) it was 83.8%; in the data set on ADC AVP0458-TCO-MMAE (24 h, mean ± SD (n = 3)), 98.4 ± 0.3%. Moreover, the “MMAE release level, in words” value in the data set on ADC AVP0458-TCO-MMAE is listed as “as high as that obtained with the less reactive 2.17”. For the same molecule, the “MMAE release speed, in words” value in the data set with ADC AVP0458-TCO-MMAE (compared with 2.17) is on record as “faster”. Also, the Construct release % in [4] (TCO 3.10, doxorubicin, 18 h, 37° C.) was 18 h: 100%; in data set [4] (TCO 3.10, released construct doxorubicin, 5 min), 5 min: 52%; in [4] (TCO 3.11, released construct doxorubicin, 5 min), 5 min: 100%; in data set [4] (TCO 3.2, dimethylamine, 2 h, incubated at 37° C.), 2 h: 80%; in data set [4] (TCO 3.2, dimethylamine, 20 h, incubated at 37° C.) it was 20 h: 95%; in [4] (TCO 3.2, released construct dimethylamine, 5 min, MeCN/PBS) it was 5 min: 50%. Also, the Construct release % in [4] (TCO 3.23, released construct dimethylamine, 5 min) is 5 min: 100%; in data set [4] (TCO 3.32, released construct dimethylamine, 5 min), 5 min: 100%; in [4] (TCO 3.7, 3-phenylpropan-1-ol, 24 h, 37° C.), 24 h: 88%; in data set [4] (TCO 3.7, 3-phenylpropan-1-ol, 48 h, 37° C.), 48 h: 95%; in [4] (TCO 3.7, released construct 3-phenylpropan-1-ol, 5 min), 5 min: 74%; in [4] (TCO 3.8, benzoic acid, 24 h, 37° C.), 24 h: 90%. Also, the Construct release % in data set [4] (TCO 3.8, released construct benzoic acid, 5 min) is reported as 5 min: 45%; in [4] (TCO 3.9, phenol, 24 h, 37° C.) it was 24 h: 93%; in [4] (TCO 3.9, released construct phenol, 5 min), 5 min: 50%. This molecule also had a radiolabel release in [5] of 88.6%. Besides, the viability at 72 h, 0.01 μM in [6] was found to be 93.6 ± 4.1%. The viability at 72 h, 0.1 μM in data set [6] came to 91.5 ± 4.4%. For the same molecule, the viability at 72 h, 1 μM in data set [6] was determined as 98.2 ± 4.6%.

As to `O=C(CCCC(=O)Nc1cccnc1-c1nnc(-c2ncccc2NC(=O)CCCC(=O)NCCOCCOCCOCCOCCOCCOCCOCCOCCOCCO)nn1)NCCOCCOCCOCCOCCOCCOCCOCCOCCOCCO` [2.14, N^1,N^1′-(2,2′-(1,2,4,5-Tetrazine-3,6-diyl)bis(pyridine-3,2-diyl))bis(N^5-(29-hydroxy-3,6,9,12,15,18,21,24,27-nonaoxanonacosyl)glutaramide)], in [1], the “Calculated k2 values for the reaction between tetrazine activators and TCO 3.2 in PBS” value is 748 ± 20 M⁻¹ s⁻¹. The molecule further had a half-life at 16.6 µM in data set [3] of 8.7 ± 0.1 h. Besides, the “MMAE release from ADC AVP0458-TCO-MMAE, Release (%)” value with ADC AVP0458-TCO-MMAE (setting [8]) is 0.6%; in the data set on ADC AVP0458-TCO-MMAE (10 min) it was 2.1%; in the data set with ADC AVP0458-TCO-MMAE (1 h), 16.6%; in the data set with ADC AVP0458-TCO-MMAE (5 h), 49.9%; in the data set on ADC AVP0458-TCO-MMAE (24 h, mean ± SD (n = 3)) it was 80.5 ± 0.3%. Moreover, the “MMAE release level, in words” value in the data set on ADC AVP0458-TCO-MMAE is “as high as that obtained with the less reactive 2.17”. In addition, in [6], the viability at 72 h, 0.01 μM came to 107 ± 3%. Besides, the viability at 72 h, 0.1 μM in data set [6] was 104 ± 2.7%. Moreover, the viability at 72 h, 1 μM in [6] was 97 ± 2.5%. Besides, the “on-tumor reaction yield with the ADC (tumor activation)” value in [7] amounted to 94.2±1.8%. Moreover, the “free MMAE in tumors, comparison of activators” value in the data set with LS174T xenografts is reported as “No difference”.
